Earlier results, collected in patent US20230190651A1, “Topical Aerosol Foams” (ARCUTIS BIOTHERAPEUTICS, INC., priority 2021, published 2023).
Where a name gives a salt, the structure may show the parent alone.

Compound: O=C(O)CCCCCCCC(=O)O [azelaic acid]
- Water Solubility: 2,140 mg/liter

Compound: CCC[C@@H]1C[C@@H](C(=O)N[C@@H]([C@H]2O[C@H](SC)[C@H](OP(=O)(O)O)[C@@H](O)[C@H]2O)[C@H](C)Cl)N(C)C1 [clindamycin phosphate]
- Water Solubility: 250,000 mg/liter

Compound: ivermectin
- Water Solubility: 4 mg/L

Compound: NC(N)=O [urea]
- Water Solubility: 1,190,000 mg/liter

Compound: CCC(=O)O[C@]1(C(=O)CCl)[C@@H](C)C[C@H]2[C@@H]3C[C@H](F)C4=CC(=O)C=C[C@]4(C)[C@@]3(F)[C@@H](O)C[C@@]21C [halobetasol propionate]
- Water Solubility: 14 mg/L

Compound: O=C(Nc1c(Cl)cncc1Cl)c1ccc(OC(F)F)c(OCC2CC2)c1 [roflumilast]
- Water Solubility: 0.54 mg/L

Compound: C=C1/C(=C\C=C2/CCC[C@]3(C)[C@@H]([C@H](C)/C=C/[C@@H](O)C4CC4)CC[C@@H]23)C[C@@H](O)C[C@@H]1O [calcipotriene]
- Water Solubility: 13.5 mg/L

Compound: CCC(=O)O[C@]1(C(=O)CCl)[C@@H](C)C[C@H]2[C@@H]3CCC4=CC(=O)C=C[C@]4(C)[C@@]3(F)[C@@H](O)C[C@@]21C [clobetasol propionate]
- Water Solubility: 4 mg/L

Compound: CC1(C)O[C@@H]2C[C@H]3[C@@H]4CCC5=CC(=O)C=C[C@]5(C)[C@H]4[C@@H](O)C[C@]3(C)[C@]2(C(=O)CO)O1 [desonide]
- Water Solubility: 59 mg/L

Compound: CCOC(=O)c1ccc(C#Cc2ccc3c(c2)C(C)(C)CCS3)nc1 [tazarotene]
- Water Solubility: 32 mg/L

Compound: CC(=O)N1CCN(c2ccc(OCC3COC(Cn4ccnc4)(c4ccc(Cl)cc4Cl)O3)cc2)CC1 (stereo not drawn) [ketoconazole]
- Water Solubility: 0.09 mg/L

Compound: Cc1cc(C(C)(C)C)c(O)c(C)c1CC1=NCCN1 [oxymetazoline hydrochloride]
- Water Solubility: 145,000 mg/liter
